Test results published in ChEMBL document CHEMBL1156444, “Structure-based design, synthesis, evaluation, and crystal structures of transition state analogue inhibitors of inosine monophosphate cyclohydrolase” (J Biol Chem, 2007).
pKi: −log10 of the molar value.

Legend:
[1] = molecular target: T1, Trifunctional purine biosynthetic protein adenosine-3 (Homo sapiens, UniProt P22102); assay: Inhibition of human recombinant GAR transformylase
T1 sequence (P22102 whole entry): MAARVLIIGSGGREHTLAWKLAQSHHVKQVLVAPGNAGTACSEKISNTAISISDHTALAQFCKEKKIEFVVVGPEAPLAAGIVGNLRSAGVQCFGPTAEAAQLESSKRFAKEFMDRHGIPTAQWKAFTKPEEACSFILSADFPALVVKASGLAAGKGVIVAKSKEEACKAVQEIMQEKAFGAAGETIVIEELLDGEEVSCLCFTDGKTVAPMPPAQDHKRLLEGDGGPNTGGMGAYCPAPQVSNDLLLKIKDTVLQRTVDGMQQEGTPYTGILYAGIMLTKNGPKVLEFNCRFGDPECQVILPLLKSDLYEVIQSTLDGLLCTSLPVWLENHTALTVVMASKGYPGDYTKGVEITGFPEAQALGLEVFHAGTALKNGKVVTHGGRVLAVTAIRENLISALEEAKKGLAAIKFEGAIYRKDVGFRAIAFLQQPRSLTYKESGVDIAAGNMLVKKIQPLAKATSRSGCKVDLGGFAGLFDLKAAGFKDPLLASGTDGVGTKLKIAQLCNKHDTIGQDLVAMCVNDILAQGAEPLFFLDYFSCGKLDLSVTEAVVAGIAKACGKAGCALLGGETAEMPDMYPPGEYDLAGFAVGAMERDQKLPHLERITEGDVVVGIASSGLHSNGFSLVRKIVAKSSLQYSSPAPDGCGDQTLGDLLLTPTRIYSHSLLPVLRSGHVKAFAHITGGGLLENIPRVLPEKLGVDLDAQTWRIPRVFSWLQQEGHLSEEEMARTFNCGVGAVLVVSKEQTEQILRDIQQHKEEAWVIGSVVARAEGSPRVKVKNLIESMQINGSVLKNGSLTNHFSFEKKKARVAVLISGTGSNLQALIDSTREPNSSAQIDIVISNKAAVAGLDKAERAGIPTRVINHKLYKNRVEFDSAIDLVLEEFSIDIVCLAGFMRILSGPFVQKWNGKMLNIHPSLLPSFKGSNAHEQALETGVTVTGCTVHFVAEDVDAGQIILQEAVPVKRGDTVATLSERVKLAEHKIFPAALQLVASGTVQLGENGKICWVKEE

[2] = Inhibition of Escherichia coli GAR transformylase
[3] = molecular target: Bifunctional purine biosynthesis protein ATIC (Homo sapiens, UniProt P31939); assay: Inhibition of IMPCH activity of human wild-type ATIC
Sequence of Bifunctional purine biosynthesis protein ATIC (P31939 whole entry): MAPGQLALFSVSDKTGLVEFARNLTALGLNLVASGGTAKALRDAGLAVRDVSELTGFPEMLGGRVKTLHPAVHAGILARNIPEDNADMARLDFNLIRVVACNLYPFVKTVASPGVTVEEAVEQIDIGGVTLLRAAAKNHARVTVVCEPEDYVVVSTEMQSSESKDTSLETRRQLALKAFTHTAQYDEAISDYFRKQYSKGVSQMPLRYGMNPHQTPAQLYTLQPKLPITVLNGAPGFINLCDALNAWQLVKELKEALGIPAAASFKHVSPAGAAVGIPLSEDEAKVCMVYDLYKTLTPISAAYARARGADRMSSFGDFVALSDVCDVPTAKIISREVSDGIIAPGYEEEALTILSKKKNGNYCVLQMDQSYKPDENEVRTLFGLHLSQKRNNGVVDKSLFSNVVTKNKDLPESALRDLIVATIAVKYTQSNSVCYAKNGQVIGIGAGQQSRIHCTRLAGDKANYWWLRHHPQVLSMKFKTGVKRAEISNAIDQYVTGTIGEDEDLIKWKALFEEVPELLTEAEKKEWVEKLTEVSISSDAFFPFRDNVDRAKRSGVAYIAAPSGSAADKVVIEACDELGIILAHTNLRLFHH

Row | pKi [1] | SMILES | pKi [2] | pKi [3]
1 | 5.32 | O=C1NS(=O)(=O)Nc2c1ncn2[C@@H]1O[C@H](COP(=O)(O)O)[C@@H](O)[C@H]1O | < 4.00 | 
2 | < 4.00 | O=C1NS(=O)(=O)Nc2c1ncn2[C@@H]1O[C@H](CO)[C@@H](O)[C@H]1O | < 4.00 | 
3 |  | NC(=O)c1ncn([C@@H]2O[C@H](COP(=O)(O)O)[C@@H](O)[C@H]2O)c1NC=O [FAICAR] |  | 6.40
4 |  | Nc1nc2c(c(=O)[nH]1)C[C@@H](CCc1ccc(C(=O)N[C@@H](CCC(=O)O)C(=O)O)cc1)CN2 [LOMETREXOL] | 7.00 | 

Row | SMILES | pKi [1] | pKi [2] | pKi [3]
5 | O=C1NS(=O)(=O)Nc2nc[nH]c21 | < 4.00 | < 4.00 | 
